This assay concerns the target T1, recombinant 15-PGDH (Homo sapiens, UniProt P15428).
T1 sequence (P15428 1-266): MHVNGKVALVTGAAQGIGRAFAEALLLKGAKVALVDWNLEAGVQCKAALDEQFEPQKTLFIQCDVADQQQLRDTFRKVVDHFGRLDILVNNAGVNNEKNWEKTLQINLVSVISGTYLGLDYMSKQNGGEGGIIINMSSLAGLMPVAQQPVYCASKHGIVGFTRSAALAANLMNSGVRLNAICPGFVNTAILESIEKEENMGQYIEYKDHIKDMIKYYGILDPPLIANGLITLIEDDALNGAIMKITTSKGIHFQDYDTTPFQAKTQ
It counts as biochemical. The settings on record: recombinant human 15-PGDH, in vitro; read-out: PDGH Assay-IC50.

The values below come from patent US12336982B2 (RODEO THERAPEUTICS CORPORATION, priority 2018, dated 2025).

Usually IC50 stands for the midpoint of a concentration-inhibition curve.

The structures appear in SMILES notation.

Excerpt: The Recombinant 15-PGDH is human unless otherwise specified.

On to `COCC[S+]([O-])c1sc2nc(-c3cnc4c(c3)CN(C)C4=O)cc(-c3ccccc3)c2c1N` (centres unmarked) [Example 384], for which the IC50 is < 2.5 nM.
Under `COCC[S+]([O-])c1sc2nc(-c3cnc4c(c3)CN(C)C4=O)cc(C3CCC3)c2c1N` (centres unmarked) [Example 385] stands < 2.5 nM; under `COCCn1ccc(-c2cc(-c3cnc4nn(C)cc4c3)nc3sc([S+]([O-])CCOC)c(N)c23)n1` (centres unmarked) [Example 386], < 2.5 nM; under `COCCn1ccc(-c2cc(-c3cnc4nn(C)cc4c3)nc3sc([S@+]([O-])CCOC)c(N)c23)n1` [Example 387], < 2.5 nM.
Under `COCCn1ccc(-c2cc(-c3cnc4nn(C)cc4c3)nc3sc([S@@+]([O-])CCOC)c(N)c23)n1` [Example 388] stands ≥ 10 nM.
Under `COCC[S+]([O-])c1sc2nc(-c3ccc(NC(=O)OC)nc3)cc(-c3cccnc3)c2c1N` (centres unmarked) [Example 390] stands 2.5 to 10 nM; under `COCC[S+]([O-])c1sc2nc(-c3ccc(NC(=O)OC)nc3)cc(C3CCC3)c2c1N` (centres unmarked) [Example 391], 2.5 to 10 nM.
With `COC(=O)Nc1ccc(-c2cc(-c3ccnn3C)c3c(N)c([S+]([O-])C4CCC4)sc3n2)cn1` (centres unmarked) [Example 392], the IC50 is < 2.5 nM.
The value for `COCC[S+]([O-])c1sc2nc(-c3ccc(NC(C)=O)nc3)cc(-c3ccnn3C)c2c1N` (centres unmarked) [Example 393] was 2.5 to 10 nM.
`COCC[S+]([O-])c1sc2nc(-c3cn[nH]c(=O)c3)cc(-c3ccccc3)c2c1N` (centres unmarked) [Example 394]: the IC50 was < 2.5 nM.
For the molecule `Nc1c([S+]([O-])C2CCC2)sc2nc(-c3cn[nH]c(=O)c3)cc(C3CCC3)c12` (centres unmarked) [Example 395], the half-inhibitory concentration (IC50) is < 2.5 nM.
The value for `COCC[S+]([O-])c1sc2nc(-c3cnn(C)c(=O)c3)cc(C3CCC3)c2c1N` (centres unmarked) [Example 396] was < 2.5 nM.
Regarding `COCC[S+]([O-])c1sc2nc(-c3cnn(C)c(=O)c3)cc(-c3ccccc3)c2c1N` (centres unmarked) [Example 397], the IC50 is < 2.5 nM.
Regarding `Cn1ncc(-c2cc(C3CCC3)c3c(N)c([S+]([O-])C4CCC4)sc3n2)cc1=O` (centres unmarked) [Example 398], the 50% inhibitory concentration (IC50) was < 2.5 nM.
Under `COCC[S+]([O-])c1sc2nc(-c3cnc4ncnn4c3)cc(-c3ccccc3)c2c1N` (centres unmarked) [Example 399] stands < 2.5 nM; under `COCC[S+]([O-])c1sc2nc(-c3cnc4ncnn4c3)cc(C3CCC3)c2c1N` (centres unmarked) [Example 400], < 2.5 nM.
In the case of `Nc1c([S+]([O-])C2CCC2)sc2nc(-c3cnc4ncnn4c3)cc(-c3ccccc3)c12` (centres unmarked) [Example 401], the IC50 is < 2.5 nM.
For the molecule `Nc1c([S@+]([O-])C2CCC2)sc2nc(-c3cnc4ncnn4c3)cc(-c3ccccc3)c12` [Example 402], the IC50 was < 2.5 nM.
The value for `Nc1c([S@@+]([O-])C2CCC2)sc2nc(-c3cnc4ncnn4c3)cc(-c3ccccc3)c12` [Example 403] was ≥ 10 nM; that for `COCC[S+]([O-])c1sc2nc(-c3cnc4ncn(C)c4c3)cc(C3CC3)c2c1N` (centres unmarked) [Example 404] was < 2.5 nM.
The value for `COCC[S@@+]([O-])c1sc2nc(-c3cnc4ncn(C)c4c3)cc(C3CC3)c2c1N` [Example 405] was < 2.5 nM; that for `COCC[S@+]([O-])c1sc2nc(-c3cnc4ncn(C)c4c3)cc(C3CC3)c2c1N` [Example 406] was ≥ 10 nM.
Under `Cn1cnc2ncc(-c3cc(C4CC4)c4c(N)c([S+]([O-])C5CCC5)sc4n3)cc21` (centres unmarked) [Example 407] stands < 2.5 nM.
Turning to `COCC[S@@+]([O-])c1sc2nc(-c3cnc4nn(C)cc4c3)cc(C(C)C)c2c1N` [Example 408], the IC50 is < 2.5 nM.
Turning to `Cn1cncc(-c2cc(C3CCC3)c3c(N)c([S+]([O-])C4CCC4)sc3n2)c1=O` (centres unmarked) [Example 409], the half-maximal inhibitory concentration (IC50) is < 2.5 nM.
`Cn1cncc(-c2cc(-c3ccccc3)c3c(N)c([S+]([O-])C4CCC4)sc3n2)c1=O` (centres unmarked) [Example 410]: the IC50 lay within 2.5 to 10 nM.
In the case of `CC1(O)CN(c2ncc(-c3cc(-c4ccccc4)c4c(N)c([S+]([O-])C5CCC5)sc4n3)cn2)C1` (centres unmarked) [Example 411], the IC50 is 2.5 to 10 nM.
Under `Cn1cc(-c2cc(-c3ccc(OCCO)cc3)c3c(N)c([S+]([O-])C4CCC4)sc3n2)cn1` (centres unmarked) [Example 412] stands < 2.5 nM; under `Cn1cc(-c2cc(-c3ccc(OCCO)cc3)nc3sc([S+]([O-])C4CCC4)c(N)c23)cn1` (centres unmarked) [Example 413], < 2.5 nM.
Under `Nc1c([S+]([O-])C2CCC2)sc2nc(-c3cncnc3)cc(-c3ccn(C4CC4)n3)c12` (centres unmarked) [Example 414] stands < 2.5 nM; under `CN(C)c1cc(-c2cc(-c3cnc(N)nc3)nc3sc([S@+]([O-])C4CCC4)c(N)c23)n(C)n1` [Example 415], < 2.5 nM.
The value for `Nc1c([S+]([O-])C2CCC2)sc2nc(-c3ccnn3C3CC3)cc(-c3cncnc3)c12` (centres unmarked) [Example 416] was ≥ 10 nM.
Turning to `COCC[S+]([O-])c1sc2nc(-c3cnc4nn(C)cc4c3)cc(C(F)(F)F)c2c1N` (centres unmarked) [Example 417], the IC50 was < 2.5 nM.
The value for `COCC[S@@+]([O-])c1sc2nc(-c3cnc4nn(C)cc4c3)cc(C(F)(F)F)c2c1N` [Example 418] was < 2.5 nM.
Under `COCC[S@+]([O-])c1sc2nc(-c3cnc4nn(C)cc4c3)cc(C(F)(F)F)c2c1N` [Example 419] stands ≥ 10 nM; under `COCCC[S+]([O-])c1sc2nc(-c3cnc4nn(C)cc4c3)cc(C(F)(F)F)c2c1N` (centres unmarked) [Example 420], < 2.5 nM; under `Cn1cc2cc(-c3cc(C(F)(F)F)c4c(N)c([S+]([O-])C5CCC5)sc4n3)cnc2n1` (centres unmarked) [Example 421], < 2.5 nM.
With `Cn1cc2cc(-c3cc(C(F)(F)F)c4c(N)c([S@@+]([O-])C5CCC5)sc4n3)cnc2n1` [Example 422], the 50% inhibitory concentration (IC50) is ≥ 10 nM.
Turning to `Cn1cc2cc(-c3cc(C(F)(F)F)c4c(N)c([S@+]([O-])C5CCC5)sc4n3)cnc2n1` [Example 423], the IC50 was < 2.5 nM.
Under `COCC[S+]([O-])c1sc2nc(-c3cnc(N4CCOCC4)nc3)cc(C(F)(F)F)c2c1N` (centres unmarked) [Example 424] stands < 2.5 nM; under `COCCC[S+]([O-])c1sc2nc(-c3cnc(N4CCOCC4)nc3)cc(C(F)(F)F)c2c1N` (centres unmarked) [Example 425], 2.5 to 10 nM.
Regarding `COCC[S+]([O-])c1sc2nc(-c3cnn(C)c3)cc(C(F)(F)F)c2c1N` (centres unmarked) [Example 426], the IC50 was < 2.5 nM.
`COCCC[S+]([O-])c1sc2nc(-c3cnn(C)c3)cc(C(F)(F)F)c2c1N` (centres unmarked) [Example 427]: the IC50 is < 2.5 nM.
Under `Cn1cc(-c2cc(C(F)(F)F)c3c(N)c([S+]([O-])C4CCC4)sc3n2)cn1` (centres unmarked) [Example 428] stands < 2.5 nM; under `Nc1ncc(-c2cc(C(F)(F)F)c3c(N)c([S+]([O-])C4CCC4)sc3n2)cn1` (centres unmarked) [Example 429], 2.5 to 10 nM.
On to `COCC[S+]([O-])c1sc2nc(-c3cnc(N)nc3)nc(-c3ccccc3)c2c1N` (centres unmarked) [Example 430], for which the IC50 was < 2.5 nM.
The value for `Nc1c([S+]([O-])C2CCC2)sc2nc(-c3cnc(NCCO)nc3)nc(-c3ccccc3)c12` (centres unmarked) [Example 431] was 2.5 to 10 nM; that for `COCC[S+]([O-])c1sc2nc(-c3cnc(NCCO)nc3)nc(-c3ccccc3)c2c1N` (centres unmarked) [Example 432] was 2.5 to 10 nM; that for `COCC[S@@+]([O-])c1sc2nc(-c3cnc4nn(C)cc4c3)nc(-c3ccccc3)c2c1N` [Example 433] was < 2.5 nM.
For the molecule `COCC[S@+]([O-])c1sc2nc(-c3cnc4nn(C)cc4c3)nc(-c3ccccc3)c2c1N` [Example 434], the IC50 is ≥ 10 nM.
